Results taken from PubChem BioAssay (NCI).
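Protocol summary: plate cells (96-well), add compound at 5 concentrations, incubate 48 h, interpolate endpoints linearly. GI50 marks 50% less growth. TGI: total growth inhibition.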

Experiments:
Assay in all cases: growth of human tumour cells (NCI), 48 h
A549 NSCLC = tested on: A549 NSCLC
CCRF-CEM leukemia = tested on: CCRF-CEM leukemia
HL-60(TB) leukemia = tested on: HL-60(TB) leukemia
IGROV1 ovarian = tested on: IGROV1 ovarian
LOX IMVI melanoma = tested on: LOX IMVI melanoma
NCI-H226 lung = tested on: NCI-H226 lung
NCI-H522 lung = tested on: NCI-H522 lung
OVCAR-5 ovarian = tested on: OVCAR-5 ovarian
SK-MEL-28 melanoma = tested on: SK-MEL-28 melanoma
SNB-75 CNS = tested on: SNB-75 CNS
SR leukemia = tested on: SR leukemia
MDA-N = tested on: MDA-N

Cc1ccc(S(=O)(=O)OI(O)CC(F)(F)F)cc1
TGI (A549 NSCLC): > 100 µM | TGI (CCRF-CEM leukemia): > 100 µM | TGI (HL-60(TB) leukemia): > 100 µM | TGI (IGROV1 ovarian): > 100 µM | TGI (LOX IMVI melanoma): > 100 µM | TGI (NCI-H226 lung): > 100 µM | TGI (NCI-H522 lung): > 100 µM | TGI (OVCAR-5 ovarian): > 100 µM | TGI (SK-MEL-28 melanoma): > 100 µM | TGI (SNB-75 CNS): > 100 µM | TGI (SR leukemia): > 100 µM

CC(=O)OC1CC2C(C)(C)OC(=O)CC(OC(C)=O)[C@]2(C)C2CCC3(C)C(=CCC3c3ccoc3)[C@]12C (stereo partly specified)
TGI (A549 NSCLC): > 100 µM | TGI (CCRF-CEM leukemia): 87.3 µM | TGI (HL-60(TB) leukemia): > 100 µM | TGI (IGROV1 ovarian): 82.8 µM | TGI (LOX IMVI melanoma): > 100 µM | TGI (NCI-H226 lung): 69.6 µM | TGI (NCI-H522 lung): 81.2 µM | TGI (OVCAR-5 ovarian): > 100 µM | TGI (SK-MEL-28 melanoma): > 100 µM | TGI (SNB-75 CNS): 83.5 µM | TGI (SR leukemia): 50.8 µM

Cn1c(-c2cccs2)cc(-c2ccsc2)c1-c1cccs1
TGI (A549 NSCLC): > 100 µM | TGI (CCRF-CEM leukemia): > 100 µM | TGI (IGROV1 ovarian): > 100 µM | TGI (MDA-N): > 100 µM | TGI (NCI-H226 lung): > 100 µM | TGI (NCI-H522 lung): > 100 µM | TGI (OVCAR-5 ovarian): > 100 µM | TGI (SK-MEL-28 melanoma): > 100 µM | TGI (SNB-75 CNS): > 100 µM | TGI (SR leukemia): > 100 µM

CC(=O)c1sc2n(C)c(=O)c3ccccc3[n+]2c1C
TGI (A549 NSCLC): > 100 µM | TGI (CCRF-CEM leukemia): > 100 µM | TGI (HL-60(TB) leukemia): > 100 µM | TGI (IGROV1 ovarian): > 100 µM | TGI (LOX IMVI melanoma): > 100 µM | TGI (MDA-N): > 100 µM | TGI (NCI-H226 lung): > 100 µM | TGI (NCI-H522 lung): > 100 µM | TGI (OVCAR-5 ovarian): > 100 µM | TGI (SK-MEL-28 melanoma): > 100 µM | TGI (SR leukemia): > 100 µM

COc1ccc2cc(/C=N\NC(=O)Nc3ccc([N+](=O)[O-])cc3)ccc2c1
TGI (A549 NSCLC): 18.5 µM | TGI (HL-60(TB) leukemia): 30.7 µM | TGI (IGROV1 ovarian): 23.2 µM | TGI (LOX IMVI melanoma): 17.6 µM | TGI (MDA-N): 18.5 µM | TGI (NCI-H522 lung): 26.4 µM | TGI (OVCAR-5 ovarian): 48.6 µM | TGI (SK-MEL-28 melanoma): 23.1 µM | TGI (SNB-75 CNS): 23.1 µM

O=c1[nH]cc(COCC(O)CO)c(=O)[nH]1 (stereo unspecified)
TGI (A549 NSCLC): > 100 µM | TGI (CCRF-CEM leukemia): > 100 µM | TGI (HL-60(TB) leukemia): > 100 µM | TGI (IGROV1 ovarian): > 100 µM | TGI (LOX IMVI melanoma): > 100 µM | TGI (NCI-H226 lung): > 100 µM | TGI (NCI-H522 lung): > 100 µM | TGI (OVCAR-5 ovarian): > 100 µM | TGI (SK-MEL-28 melanoma): > 100 µM | TGI (SNB-75 CNS): > 100 µM

O=c1cc(-c2ccc3ccccc3c2)[nH]c2ncccc12
TGI (A549 NSCLC): > 100 µM | TGI (CCRF-CEM leukemia): > 100 µM | GI50 (HL-60(TB) leukemia): 1.8 µM | TGI (HL-60(TB) leukemia): 4.55 µM | TGI (IGROV1 ovarian): > 100 µM | TGI (LOX IMVI melanoma): > 100 µM | TGI (NCI-H226 lung): > 100 µM | TGI (NCI-H522 lung): 46 µM | TGI (OVCAR-5 ovarian): > 100 µM | TGI (SK-MEL-28 melanoma): > 100 µM | TGI (SNB-75 CNS): 62.6 µM | TGI (SR leukemia): 6.1 µM

COc1ccc2c(c1)C1c3ccccc3CCN1CCC2 (stereo unspecified)
TGI (A549 NSCLC): > 100 µM | TGI (CCRF-CEM leukemia): > 100 µM | TGI (IGROV1 ovarian): > 100 µM | TGI (LOX IMVI melanoma): > 100 µM | TGI (NCI-H226 lung): > 100 µM | TGI (NCI-H522 lung): 98.1 µM | TGI (OVCAR-5 ovarian): > 100 µM | TGI (SK-MEL-28 melanoma): > 100 µM | TGI (SNB-75 CNS): 64.2 µM | TGI (SR leukemia): > 100 µM

O=C1OC(C2Cc3ccc4c(c3C2=O)CCCC4)c2ccccc21 (stereo unspecified)
TGI (A549 NSCLC): > 100 µM | TGI (CCRF-CEM leukemia): > 100 µM | TGI (HL-60(TB) leukemia): > 100 µM | TGI (IGROV1 ovarian): > 100 µM | TGI (LOX IMVI melanoma): > 100 µM | TGI (MDA-N): > 100 µM | TGI (NCI-H226 lung): 59.2 µM | TGI (NCI-H522 lung): > 100 µM | TGI (OVCAR-5 ovarian): > 100 µM | TGI (SK-MEL-28 melanoma): > 100 µM | TGI (SNB-75 CNS): > 100 µM

COC(=O)C1Cc2c([nH]c3ccccc23)-c2[nH]c3ccccc3c2CC(NC(C)=O)C(=O)NCC(=O)NCC(=O)N1 (stereo unspecified)
TGI (A549 NSCLC): > 100 µM | TGI (CCRF-CEM leukemia): > 100 µM | TGI (HL-60(TB) leukemia): > 100 µM | TGI (IGROV1 ovarian): > 100 µM | TGI (LOX IMVI melanoma): > 100 µM | TGI (MDA-N): > 100 µM | TGI (NCI-H226 lung): > 100 µM | TGI (NCI-H522 lung): > 100 µM | TGI (OVCAR-5 ovarian): > 100 µM | TGI (SK-MEL-28 melanoma): > 100 µM | TGI (SNB-75 CNS): > 100 µM
